Test results from PubChem BioAssay (NCI).
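Cultured in 96-well plates, cells were exposed to test compound for 48 hours across five concentrations. Definition used: TGI = concentration required for complete inhibition of growth.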

What was measured:
Assay in all cases: NCI tumour cell line growth inhibition, 48 h
[1] = system: OVCAR-4 ovarian
[2] = system: MDA-MB-231 breast
[3] = system: MDA-N
[4] = system: NCI-H522 lung
[5] = system: NCI-H460 lung
[6] = system: SNB-19 CNS
[7] = system: DU-145 prostate
[8] = system: UACC-257 melanoma
[9] = system: UO-31 renal
[10] = system: M14 melanoma
[11] = system: MOLT-4 leukemia
[12] = system: SN12C renal
[13] = system: EKVX NSCLC
[14] = system: SK-MEL-28 melanoma
[15] = system: HCT-116 colon
[16] = system: COLO 205 colon
[17] = system: A549 NSCLC
[18] = system: U251 CNS
[19] = system: HS 578T breast
[20] = system: RPMI-8226 leukemia
[21] = system: MDA-MB-435
[22] = system: K-562 leukemia
[23] = system: SF-295 CNS
[24] = system: NCI/ADR-RES ovarian
[25] = system: HCT-15 colon
[26] = system: SW-620 colon
[27] = system: LOX IMVI melanoma
[28] = system: ACHN renal
[29] = system: A498 renal
[30] = system: SK-MEL-2 melanoma
[31] = system: 786-0 renal
[32] = system: TK-10 renal
[33] = system: HCC-2998 colon
[34] = system: KM12 colon
[35] = system: CAKI-1 renal
[36] = system: OVCAR-5 ovarian
[37] = system: PC-3 prostate
[38] = system: SF-539 CNS
[39] = system: HT29 colon
[40] = system: IGROV1 ovarian
[41] = system: MCF7 breast
[42] = system: UACC-62 melanoma
[43] = system: OVCAR-3 ovarian
[44] = system: CCRF-CEM leukemia
[45] = system: SK-OV-3 ovarian
[46] = system: OVCAR-8 ovarian
[47] = system: SR leukemia
[48] = system: HOP-62 NSCLC
[49] = system: SK-MEL-5 melanoma
[50] = system: SF-268 CNS
[51] = system: NCI-H23 lung
[52] = system: BT-549 breast
[53] = system: SNB-75 CNS
[54] = system: RXF 393 renal
[55] = system: HOP-92 NSCLC
[56] = system: MALME-3M melanoma
[57] = system: NCI-H226 lung

For `COc1ccc(OC)c(CNc2ccc(O)c(C(=O)NCCc3ccc(F)cc3)c2)c1`, the TGI [1] was 66.2 µM, the TGI [2] was 21.7 µM and the TGI [3] was 23 µM. The TGI [4] was 7.56 µM, the TGI [5] was greater than 100 µM and the TGI [6] was 54.1 µM. For the same compound, the TGI [7] was 34.5 µM, the TGI [8] was 41 µM and the TGI [9] was 24.8 µM. The TGI [10] was 26.8 µM, the TGI [11] was 21.5 µM and the TGI [12] was 71.9 µM. It also gave a TGI [13] of 65.6 µM, a TGI [14] of 27.7 µM and a TGI [15] of 27.1 µM. It also gave a TGI [16] of 40.2 µM, a TGI [17] greater than 100 µM and a TGI [18] of 24.9 µM. For the same compound, the TGI [19] was greater than 100 µM, the TGI [20] was 15.4 µM and the TGI [21] was 8.34 µM. It also gave a TGI [22] of 19.1 µM, a TGI [23] of 51.7 µM and a TGI [24] greater than 100 µM. The TGI [25] was 44.9 µM, the TGI [26] was greater than 100 µM and the TGI [27] was 25.3 µM. The TGI [28] was greater than 100 µM, the TGI [29] was 59.9 µM and the TGI [30] was 26.4 µM. For the same compound, the TGI [31] was 68.4 µM, the TGI [32] was 94.9 µM and the TGI [33] was 8.98 µM. For the same compound, the TGI [34] was 25.9 µM, the TGI [35] was 87.9 µM and the TGI [36] was 64.9 µM. The TGI [37] was 32.1 µM, the TGI [38] was 35.7 µM and the TGI [39] was 47.5 µM. For the same compound, the TGI [40] was 20.9 µM, the TGI [41] was 59.2 µM and the TGI [42] was 25.7 µM. It also gave a TGI [43] of 28.8 µM, a TGI [44] greater than 100 µM and a TGI [45] of 46.3 µM. It also gave a TGI [46] of 37.6 µM, a TGI [47] of 12.1 µM and a TGI [48] of 21.4 µM. It also gave a TGI [49] of 19.9 µM, a TGI [50] of 29.1 µM and a TGI [51] greater than 100 µM. For the same compound, the TGI [52] was 73.6 µM.

`O=c1c2c([nH]c3cc4c(cc13)OCO4)-c1ccccc1CCC2` was tested, and the TGI [1] was greater than 50 µM, the TGI [2] was greater than 50 µM and the TGI [3] was greater than 50 µM. The TGI [4] was greater than 50 µM, the TGI [53] was greater than 50 µM and the TGI [5] was greater than 50 µM. The TGI [6] was greater than 50 µM, the TGI [7] was greater than 50 µM and the TGI [8] was greater than 50 µM. For the same compound, the TGI [9] was greater than 50 µM, the TGI [10] was greater than 50 µM and the TGI [11] was greater than 50 µM. It also gave a TGI [12] greater than 50 µM, a TGI [13] greater than 50 µM and a TGI [14] greater than 50 µM. It also gave a TGI [15] greater than 50 µM, a TGI [16] greater than 50 µM and a TGI [17] greater than 50 µM. For the same compound, the TGI [54] was greater than 50 µM, the TGI [18] was greater than 50 µM and the TGI [19] was greater than 50 µM. For the same compound, the TGI [20] was greater than 50 µM, the TGI [21] was greater than 50 µM and the TGI [22] was greater than 50 µM. For the same compound, the TGI [23] was greater than 50 µM, the TGI [24] was greater than 50 µM and the TGI [25] was greater than 50 µM. The TGI [26] was greater than 50 µM, the TGI [27] was greater than 50 µM and the TGI [28] was greater than 50 µM. The TGI [55] was greater than 50 µM, the TGI [29] was greater than 50 µM and the TGI [31] was greater than 50 µM. For the same compound, the TGI [32] was greater than 50 µM, the TGI [56] was greater than 50 µM and the TGI [33] was greater than 50 µM. For the same compound, the TGI [34] was greater than 50 µM, the TGI [35] was greater than 50 µM and the TGI [36] was greater than 50 µM. It also gave a TGI [37] greater than 50 µM, a TGI [38] greater than 50 µM and a TGI [39] greater than 50 µM. The TGI [40] was greater than 50 µM, the TGI [41] was greater than 50 µM and the TGI [42] was greater than 50 µM. It also gave a TGI [43] greater than 50 µM, a TGI [44] greater than 50 µM and a TGI [45] greater than 50 µM. For the same compound, the TGI [46] was greater than 50 µM, the TGI [57] was greater than 50 µM and the TGI [47] was 38.4 µM. For the same compound, the TGI [48] was greater than 50 µM, the TGI [49] was greater than 50 µM and the TGI [50] was greater than 50 µM. The TGI [51] was greater than 50 µM and the TGI [52] was greater than 50 µM.
